Results: paper PMC3844262 (Journal of immunology (Baltimore, Md. : 1950), 2013)

Experiments:
[1] = target: H-2K^b (Mus musculus, UniProt P01901); format: binding, murine
[2] = tested on: GP34-A11R cross-reactive T cell lines (TCL #1, #3, #7); format: cell-based, C57BL/6 (B6) mice
[3] = tested on: CD8+ T cells from acute day 8 LCMV-infected mice; format: cell-based, C57BL/6 (B6) mice

Sequence of H-2K^b (P01901 whole entry, looked up): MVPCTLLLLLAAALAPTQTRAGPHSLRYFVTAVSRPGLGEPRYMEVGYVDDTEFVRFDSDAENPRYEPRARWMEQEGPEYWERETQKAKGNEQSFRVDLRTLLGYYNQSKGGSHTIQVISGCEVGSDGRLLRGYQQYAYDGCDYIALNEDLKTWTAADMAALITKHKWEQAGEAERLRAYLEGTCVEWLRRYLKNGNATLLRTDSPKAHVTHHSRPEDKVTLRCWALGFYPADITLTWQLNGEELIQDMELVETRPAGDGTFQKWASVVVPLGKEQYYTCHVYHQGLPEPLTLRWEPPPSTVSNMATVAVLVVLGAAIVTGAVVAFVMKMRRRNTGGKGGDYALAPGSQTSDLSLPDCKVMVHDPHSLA

| Sequence | Tm of K^b-peptide complex [1] | CD8+ T cells responding (IFNγ), TCL #7 [2] | IFNγ production ex vivo, acute LCMV-infected mice (OVA hybrid experiment) [3] | IFNγ response, % of total CD8+ T cells [3] |
| --- | --- | --- | --- | --- |
| SIINFEKL [OVA] | 51.5 °C | does not cross-react | – | – |
| SIINFAAL [OVA-AA] | – | not cross-reactive | not observed | – |
| SIYRYYGL | – | – | – | not observed |
